Laboratory results: PubChem BioAssay AID2060340 (Molecular Pharmacology Branch, DTP, NCI, 2025)
pIC50: −log10 of the molar value. “And” between values parts separate entries of the source, which are not always exact repeats. Identical values can stand only once.

Test system: 349418-098-R-PDC spheroids, viability, % test/control
Test: Anticancer human tumor 349418-098-R-PDC patient-derived lung adenocarcinoma cell line growth inhibition [IpAb]
Details: spheroids with HUVEC and MSC; for viability, T/C: stronger effect = lower value; active = viability on the fitted dose curve at most 10% of control; inactive = the rest
Procedure, shortened: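 Spheroids of 60% malignant cells, 25% HUVEC and 15% MSC were exposed to targeted agents combined with ipatasertib or abemaciclib. Doses started at or near clinical Cmax (10 microM when unknown) and fell in half-log steps.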

[1] = curve of first compound, second compound 0.1 µM
[2] = curve of first compound, second compound 0.316 µM
[3] = curve of first compound, second compound 1 µM
[4] = curve of first compound, second compound 3.16 µM
[5] = curve of first compound, second compound 10 µM
[6] = second compound 0.1 µM, first compound 0.0316 µM
[7] = second compound 0.1 µM, first compound 0.1 µM
[8] = second compound 0.1 µM, first compound 0.316 µM
[9] = second compound 0.1 µM, first compound 1 µM
[10] = second compound 0.316 µM, first compound 0.0316 µM
[11] = second compound 0.316 µM, first compound 0.1 µM
[12] = second compound 0.316 µM, first compound 0.316 µM
[13] = second compound 0.316 µM, first compound 1 µM
[14] = second compound 1 µM, first compound 0.0316 µM
[15] = second compound 1 µM, first compound 0.1 µM
[16] = second compound 1 µM, first compound 0.316 µM
[17] = second compound 1 µM, first compound 1 µM
[18] = second compound 3.16 µM, first compound 0.0316 µM
[19] = second compound 3.16 µM, first compound 0.1 µM
[20] = second compound 3.16 µM, first compound 0.316 µM
[21] = second compound 3.16 µM, first compound 1 µM
[22] = second compound 10 µM, first compound 0.0316 µM
[23] = second compound 10 µM, first compound 0.1 µM
[24] = second compound 10 µM, first compound 0.316 µM
[25] = second compound 10 µM, first compound 1 µM

COc1c(OCCCN2CCOCC2)ccc2c3n(c(=NC(=O)c4cnc(N)nc4)nc12)CCN3 + CC(C)NCC(C(=O)N1CCN(c2ncnc3c2C(C)CC3O)CC1)c1ccc(Cl)cc1
active: viability, T/C [6] 9.62% | viability, T/C [7] 5.79% | viability, T/C [8] 5.45% | viability, T/C [9] 5.99% | viability, T/C [10] 8.11% | viability, T/C [11] 6.04% | viability, T/C [12] 5.28% | viability, T/C [13] 5.13% | viability, T/C (second compound 1 µM, first compound 0.01 µM) 9.17% | viability, T/C [14] 7.4% | viability, T/C [15] 5.13% | viability, T/C [16] 5.24% | viability, T/C [17] 4.6% | viability, T/C (second compound 3.16 µM, first compound 0.00316 µM) 9.24% | viability, T/C (second compound 3.16 µM, first compound 0.01 µM) 8.35% | viability, T/C [18] 6.17% | viability, T/C [19] 4.91% | viability, T/C [20] 4.85% | viability, T/C [21] 4.78% | viability, T/C (second compound 10 µM, first compound 0.00316 µM) 6.46% | viability, T/C (second compound 10 µM, first compound 0.01 µM) 6.12% | viability, T/C [22] 5.32% | viability, T/C [23] 4.15% | viability, T/C [24] 4.39% | viability, T/C [25] 4.49%
> 8.50: pIC50 [2] | pIC50 [3] | pIC50 [4] | pIC50 [5]
inactive: viability, T/C (second compound 0.1 µM, first compound 0.00316 µM) 55.1% | viability, T/C (second compound 0.1 µM, first compound 0.01 µM) 29.2% | viability, T/C (second compound 0.316 µM, first compound 0.00316 µM) 35% | viability, T/C (second compound 0.316 µM, first compound 0.01 µM) 21.2% | viability, T/C (second compound 1 µM, first compound 0.00316 µM) 16.6%
8.40: pIC50 [1]

Cn1ncc(Cl)c1-c1cc(C(=O)NC(CN)Cc2cccc(F)c2)sc1Cl (configuration not stated)
inactive: viability, T/C (compound 0.0316 µM) 90% and 71.9% | viability, T/C (compound 0.1 µM) 64.6% and 67% | viability, T/C (compound 0.316 µM) 43% and 30.5% | viability, T/C (compound 1 µM) 10.9% and 16.7%
6.70 and 6.77: pIC50 (curve of compound)
active: viability, T/C (compound 3.16 µM) 7.08% and 7.12% | viability, T/C (compound 10 µM) 0.13% and 0.32%

Cn1nccc1Nc1nccc(-c2ccn(C(CO)c3ccc(Cl)c(F)c3)c(=O)c2)n1 (configuration not stated) + CC(C)NCC(C(=O)N1CCN(c2ncnc3c2C(C)CC3O)CC1)c1ccc(Cl)cc1
> 7.50: pIC50 [1] | pIC50 [2] | pIC50 [3] | pIC50 [4] | pIC50 [5]
inactive: viability, T/C [6] 43.3% | viability, T/C [7] 35.9% | viability, T/C [8] 33% | viability, T/C [9] 29.7% | viability, T/C (second compound 0.1 µM, first compound 3.16 µM) 21.5% | viability, T/C (second compound 0.1 µM, first compound 10 µM) 17.9% | viability, T/C [10] 23.7% | viability, T/C [11] 20.2% | viability, T/C [12] 17.9% | viability, T/C [13] 16% | viability, T/C (second compound 0.316 µM, first compound 3.16 µM) 16% | viability, T/C (second compound 0.316 µM, first compound 10 µM) 14.6% | viability, T/C [14] 10.3% | viability, T/C [15] 10.8% | viability, T/C [16] 8.91% | viability, T/C [17] 10.4% | viability, T/C (second compound 1 µM, first compound 3.16 µM) 11.8% | viability, T/C (second compound 1 µM, first compound 10 µM) 11%
active: viability, T/C [18] 7.69% | viability, T/C [19] 7.5% | viability, T/C [20] 6.61% | viability, T/C [21] 7% | viability, T/C (second compound 3.16 µM, first compound 3.16 µM) 7.85% | viability, T/C (second compound 3.16 µM, first compound 10 µM) 8.65% | viability, T/C [22] 5.18% | viability, T/C [23] 5.1% | viability, T/C [24] 4.68% | viability, T/C [25] 4.43% | viability, T/C (second compound 10 µM, first compound 3.16 µM) 5.74% | viability, T/C (second compound 10 µM, first compound 10 µM) 7%

CC(=O)c1c(C)c2cnc(Nc3ccc(N4CCNCC4)cn3)nc2n(C2CCCC2)c1=O + CC(C)NCC(C(=O)N1CCN(c2ncnc3c2C(C)CC3O)CC1)c1ccc(Cl)cc1
> 9.02: pIC50 [2] | pIC50 [3] | pIC50 [4] | pIC50 [5]
active: viability, T/C (second compound 0.316 µM, first compound 0.0949 µM) 8.84% | viability, T/C (second compound 0.316 µM, first compound 0.3 µM) 8.96% | viability, T/C (second compound 1 µM, first compound 0.00949 µM) 9.63% | viability, T/C (second compound 1 µM, first compound 0.03 µM) 7.98% | viability, T/C (second compound 1 µM, first compound 0.0949 µM) 7.69% | viability, T/C (second compound 1 µM, first compound 0.3 µM) 7.53% | viability, T/C (second compound 3.16 µM, first compound 0.003 µM) 9.48% | viability, T/C (second compound 3.16 µM, first compound 0.00949 µM) 8.85% | viability, T/C (second compound 3.16 µM, first compound 0.03 µM) 6.09% | viability, T/C (second compound 3.16 µM, first compound 0.0949 µM) 6.21% | viability, T/C (second compound 3.16 µM, first compound 0.3 µM) 7.07% | viability, T/C (second compound 10 µM, first compound 0.000949 µM) 7.89% | viability, T/C (second compound 10 µM, first compound 0.003 µM) 6.96% | viability, T/C (second compound 10 µM, first compound 0.00949 µM) 5.33% | viability, T/C (second compound 10 µM, first compound 0.03 µM) 5.56% | viability, T/C (second compound 10 µM, first compound 0.0949 µM) 5.75% | viability, T/C (second compound 10 µM, first compound 0.3 µM) 5.61%
8.06: pIC50 [1]
inactive: viability, T/C (second compound 0.1 µM, first compound 0.000949 µM) 76.3% | viability, T/C (second compound 0.1 µM, first compound 0.003 µM) 74.8% | viability, T/C (second compound 0.1 µM, first compound 0.00949 µM) 44% | viability, T/C (second compound 0.1 µM, first compound 0.03 µM) 29.3% | viability, T/C (second compound 0.1 µM, first compound 0.0949 µM) 14.4% | viability, T/C (second compound 0.1 µM, first compound 0.3 µM) 12.1% | viability, T/C (second compound 0.316 µM, first compound 0.000949 µM) 40.5% | viability, T/C (second compound 0.316 µM, first compound 0.003 µM) 43.2% | viability, T/C (second compound 0.316 µM, first compound 0.00949 µM) 23.8% | viability, T/C (second compound 0.316 µM, first compound 0.03 µM) 15.5% | viability, T/C (second compound 1 µM, first compound 0.000949 µM) 19.5% | viability, T/C (second compound 1 µM, first compound 0.003 µM) 13.5% | viability, T/C (second compound 3.16 µM, first compound 0.000949 µM) 11.4%
